Measurements published in patent US10875898B2, “Bioactive protein, use thereof and method for its production” (Koppert B.V., priority 2014, dated 2020).

How the values were obtained:
[1] = test system: Lotus japonicus; experiment: Rhizobium lotii on Lotus japonicus in vitro system, plant growth and nodule density; type: in vivo; details: HYTLO1 0.07 μM, 6PP 0.002 μM, 4 weeks after seeding; for plant growth promotion effect of Rhizobia on Lotus japonicus: HA 0.001 μM in MS media; for nodule formation (number of nodules per cm of root): HA 0.001 μM, with R. loti
Method: Wt+Rhz=treatment with R. loti, Wt-Rhz without R. loti. (D) Growth measured after 4 weeks, in the absence (cont) or presence of Rhizoba R. loti ((+) Rhiz). The purified molecules were added to the sterile MS media and poured into Petri dishes. Data were recorded 4 weeks after seeding of L. japonicus.
FIG. 18. […] (HYT=HYTLO1 at 0.07 μM, 6PP at 0.002 μM, HA=Harzianic Acid at 0.001 μM). Wt=control with R. loti without metabolites. The purified molecules were added to the sterile MS media and poured into Petri dishes. Average number of nodules per cm of root are indicated. Data were recorded 4 weeks after seeding of L. japonicus.
In order to test the effect of HYTLO1, as well as of the secondary metabolites HA and 6PP on the growth promotion activity of Rhizobia, such as Rhizobium sp., on legumimosae plants, we used a standard Rhizobium lotii on Lotus japonicus in vitro system (Barbulova et al., 2005, Functional Plant Biology, 32:529-536). Plant growth and nodule density on the roots were scored four weeks after seeding by comparing untreated controls and the various treatments.

[2] = test system: cucumber; experiment: combined application of HYTLO1, HA and 6PP on cucumber seed germination and growth promotion; type: in vivo; set-up: Root length, increase % vs. Control / Plant fresh weight, increase % vs. Control / Plant dry weight, increase % vs. Control / plant height, increase % vs. Control: concentration or dose not given beside the values; details: for Plant dry weight / Root length (cm) / Plant fresh weight / plant height (cm): 30 days after seed coating; for Plant dry weight: SD +− 1.3 g; for Root length (cm): SD +− 2.1 cm; for Plant fresh weight: SD +− 2.5 g; for plant height (cm): drench 10^−7M 6PP and HA, 10^−8M HYTLO1, half or one third dose in combinations, SD +− 2.5 cm; for Seed germination (24 h): coated cucumber seeds on humid filter paper, SD +− 9%
Method: Tested metabolites include 6PP and Harzianic Acid, and experiments were performed on seed germination, stem or root elongation as well fresh/dry weight. The results shown in Table 1 were obtained by using cucumber seeds coated with the solutions of the tested compounds, that were then transferred in Petri dishes and left to germinate on filter humid paper. First seed germination was evaluated, then the germinated seedlings were transplanted into pots containing sterilised soil. Other two treatments with the purified molecules were performed at 10 days interval, by drenching the soil with the solutions at the final concentrations of 10^−7M for 6PP and HA, and 10^−8M for HYTLO1. In two-compounds application, half dose of each molecule was used. In three-compound applications, one third of the dose of each molecules was used. Each treatments consisted of 8 plants. Results were collected 30 days after seed coating. Control was produced by adding water instead of the molecule solutions. The effect of the minimal amounts of solvents eventually contained in HA and 6PP solution was preliminary tested, with no differences observed in comparison to water control. The results shown in Table 1 that all of the three tested molecules have a significant beneficial effect on seed germination and plant growth, and that they can be synergistically combined for enhanced effectiveness.

Row | Structure (SMILES) | plant growth promotion effect of Rhizobia on Lotus japonicus [1] | nodule formation (number of nodules per cm of root) [1] | Plant dry weight [2] | Root length (cm) [2] | Plant fresh weight [2] | plant height (cm) [2] | Seed germination (24 h) [2] | Seed germination (24 h), increase % vs. Control ([2]; vs water control) | Plant dry weight, increase % vs. Control ([2]; vs water control, 30 days) | Plant fresh weight, increase % vs. Control ([2]; vs water control, 30 days) | Root length, increase % vs. Control ([2]; vs water control, 30 days) | plant height, increase % vs. Control ([2]; vs water control, 30 days)
1 | CCCCCc1cccc(=O)o1 [6PP, 6-Pentyl-α-pyrone] | Enhancement of the effect of Rhizobium lotii | Enhancement of nodule formation | 7.1 g | 17.6 cm | 22.04 g | 21.8 cm | 75% | +25% | 42.3% | 25.9% | 31.1% | 
2 | CCC/C=C/C=C/C(O)=C1/C(=O)C(CC(O)(C(=O)O)C(C)C)N(C)C1=O (centres unmarked) [HA, Harzianic acid] | Enhancement of the effect of Rhizobium lotii | Enhancement of nodule formation | 7.6 g | 13.6 cm | 23.36 g | 27.4 cm | 75% | +25% | 46.1% | 30.1% | 10.7% | 8.4%
